Laboratory results: patent US20190308035A1, “A NON-INVASIVE METHOD FOR SELECTIVE NEURAL STIMULATION BY ULTRASOUND” (priority 2018, published 2019)
“Also recorded” adds a separate entry of the source. Bridge positions count the residues as written; N and C are the ends. Ends that are not written are not given here.

Assays:
[1] = biological target: T1, Piezo1 (Mus musculus, UniProt E2JF22); experiment: Calcium imaging (Cal590) in 293T cells overexpressing Piezo1; assay type: cell-based; parameters: EGFP; expressed in transfected cells; host or cells: 293T cells (ATCC), pcDNA3.1 Piezo1-EGFP plasmid provided by Dr. Ardem Patapoutian; conditions: Yodal; 293T cells overexpressing Piezo1 vs control cells
[2] = biological target: T1, Piezo1; experiment: Western blot of p-CaMKII and p-CREB in CLU199 cells; assay type: cell-based; parameters: Expression of Piezo1 in CLU199 cells was confirmed through RT-PCR; host or cells: mHippoE-18 (CLU199) embryonic mouse hippocampal cell line
Protocol: To evaluate effects on cell signalling, the phosphorylated forms of the Calcium/calmodulin-dependent protein kinase type II (p-CaMKII), and the transcription factor CREB (p-CREB) (28), both crucial players in Ca2+ signalling were analysed.
0.3 MPa ultrasound was then used to treat CLU199 cells with or without Yodal, or the Piezo1 blocker GsMTx-4 [7].
SMARTpool ON-TARGETplus Piezo1 siRNA (L-061455-00-0005) and ON-TARGETplus Non-Targeting Pool (D-001810-10) siRNA were obtained from Dharmacon. Transfection complexes were prepared by incubating siRNA with Lipofectamine RNAiMAX (Invitrogen) in Opti-MEM for 5 minutes at room temperature. 300 μl of complexes added per 35 mm dish or collagen-coated coverslips (5 μg/cm2). 1.5×10^6 cells were added per dish in fully-supplemented DMEM such that the final siRNA concentration was 125 nM. Cells were incubated for 48 hours post-transfection, and then used for further experiments.
(§1) CLU199 cells or primary cortical neurons at DIV 10 were treated with ultrasound at acoustic pressures of 0.1, 0.3 or 0.5 MPa for 20 minutes with 20 s interval inside a humified incubator, 37° C., 5% CO2. The ultrasonic stimulation system and treatment parameters are the same as those described in section 4. Yodal (Tocris Bioscience) was used as a Piezo1 agonist with a concentration of 1 μM, while GsMTx-4 (Abcam) was used as a Piezo1 blocker at a concentration of 10 μM. Yodal was added to culture media, followed by a 20-minute incubation or immediate ultrasound treatment. GsMTx-4 was added to culture media, allowed for 30 minutes incubation, and followed by a further 20-minute incubation or ultrasound treatment.
Cells were lysed with RIPA buffer (EMD Millipore), supplemented with 1× Halt™ Protease and Phosphatase Inhibitor Cocktail (Thermo Fisher Scientific) on ice, centrifuged to clear the lysate, and protein concentrations measured using the Bio-Rad protein assay. 30 or 50 μg total protein per well was loaded on 10% SDS-PAGE gels, electrophoresed, and transferred to methanol-activated PVDF membranes. Membranes were blocked with 3% BSA in Tris-buffered-saline+0.05% Tween-20 (TBST). Membranes were incubated in primary antibody diluted in 5% BSA in TBST overnight, washed with TBST and incubated in secondary antibody solutions, diluted in blocking buffer, for 1 hour at room temperature. […]
Protein levels were quantified through image densitometry using ImageJ. Protein levels were expressed as a fold change compared to the untreated control, an average ±SEM of at least three independent experiments, except in FIG. 2E. Statistical significance was calculated using a two-tailed unpaired student's t-test and P values below 0.05 were considered significant.

[3] = tested on: CLU199 cells; experiment: qPCR array of cAMP/calcium signalling genes in CLU199 cells; assay type: cell-based, mouse; conditions: array of 84 genes, Yodal 1 μM, vs untreated control
Protocol: Ultrasonic effects in CLU199 cells were explored using a qPCR array that probes 84 genes known to have Ca2+ responsive elements of various kinds.
A qRT-PCR array that explores genes that regulate calcium-related signalling (RT2 Pathway Finder) was used to evaluate how ultrasound treatment affects cellular signalling. Cells were also either pre-treated with GsMTx-4 (10 μM) before ultrasound or treated with Yodal (1 μM) by way of comparison. Results of the PCR were uploaded to Qiagen/SABiosciences online suite for data analysis, and clustergrams were generated using this software. Information about various subgroups of genes described here (FIG. 2J) were obtained from the product literature.
CLU199 cells seeded in 35 mm dishes were treated with ultrasound, Yodal or GsMTx-4 as appropriate. Total RNA was collected as described in section 7, and the concentration measured on NanoDrop™ One (Thermo Fisher Scientific). Samples with 260/280>1.8 and 260/230>2.0 were run on a 1% agarose gel containing bleach to check for RNA integrity (2). […] Ct values were calculated using the Quantstudio™ software, exported into a spreadsheet and uploaded to SABiosciences' online array data analysis software (accessible at: http://pcrdataanalysis.sabiosciences.com/per/arrayanalysis.php). […] Resulting clustergrams and a spreadsheet containing the analyzed results were obtained from this software. […]

[4] = biological target: T1, Piezo1; experiment: Immunocytochemical staining of c-Fos, p-CaMKII and p-CREB in primary cortical neurons; assay type: cell-based; parameters: Expression of Piezo1 in CLU199 cells was confirmed through RT-PCR; host or cells: mHippoE-18 (CLU199) embryonic mouse hippocampal cell line; conditions: GsMTx-4 10 μM followed by 0.3 MPa ultrasound
Protocol: The expression of c-Fos, p-CaMKII and p-CREB was investigated by immunocytochemical staining in primary cortical neurons untreated, treated by ultrasound or treated with GsMTx-4 (10 μM) followed by ultrasound. Each stimulus contained 200 cycles, at 1 kHz RPF with 200 NTB of 500 kHz ultrasound at 0.3 MPa and the results are shown in FIG. 2I.
Primary cortical neurons from embryonic mice brains were harvested as described previously with slight modifications. Briefly, pregnant mice were sacrificed at E16.5-E17, and brains from the embryonic mice were collected. They were then dissected under a microscope to separate the cortex from the other brain mass. Cortical cells were dispersed and seeded into culture dishes or collagen-coated glass coverslips (4 μg/cm2). At DIV 10, the cells were used for further experiments.
as §1
CLU199 cells and primary neurons at DIV 10, including treated with (+) or without (−) ultrasound, were fixed using 4% paraformaldehyde+PBS and permeabilized using 0.1% Triton X-100+PBS. […] The number of c-Fos+ cells were determined by counting the number of DAPI and c-Fos signals co-located with DAPI from 10 FOVs photographed per condition. Results were expressed as a percentage of c-Fos versus DAPI signals, and were subjected to a one-way ANOVA followed by a post-hoc Tukey test. […]

[5] = Yodal 1 μM alone, vs untreated control
[6] = GsMTx-4 10 μM incubation before 0.3 MPa ultrasound

T1 sequence (E2JF22 whole entry): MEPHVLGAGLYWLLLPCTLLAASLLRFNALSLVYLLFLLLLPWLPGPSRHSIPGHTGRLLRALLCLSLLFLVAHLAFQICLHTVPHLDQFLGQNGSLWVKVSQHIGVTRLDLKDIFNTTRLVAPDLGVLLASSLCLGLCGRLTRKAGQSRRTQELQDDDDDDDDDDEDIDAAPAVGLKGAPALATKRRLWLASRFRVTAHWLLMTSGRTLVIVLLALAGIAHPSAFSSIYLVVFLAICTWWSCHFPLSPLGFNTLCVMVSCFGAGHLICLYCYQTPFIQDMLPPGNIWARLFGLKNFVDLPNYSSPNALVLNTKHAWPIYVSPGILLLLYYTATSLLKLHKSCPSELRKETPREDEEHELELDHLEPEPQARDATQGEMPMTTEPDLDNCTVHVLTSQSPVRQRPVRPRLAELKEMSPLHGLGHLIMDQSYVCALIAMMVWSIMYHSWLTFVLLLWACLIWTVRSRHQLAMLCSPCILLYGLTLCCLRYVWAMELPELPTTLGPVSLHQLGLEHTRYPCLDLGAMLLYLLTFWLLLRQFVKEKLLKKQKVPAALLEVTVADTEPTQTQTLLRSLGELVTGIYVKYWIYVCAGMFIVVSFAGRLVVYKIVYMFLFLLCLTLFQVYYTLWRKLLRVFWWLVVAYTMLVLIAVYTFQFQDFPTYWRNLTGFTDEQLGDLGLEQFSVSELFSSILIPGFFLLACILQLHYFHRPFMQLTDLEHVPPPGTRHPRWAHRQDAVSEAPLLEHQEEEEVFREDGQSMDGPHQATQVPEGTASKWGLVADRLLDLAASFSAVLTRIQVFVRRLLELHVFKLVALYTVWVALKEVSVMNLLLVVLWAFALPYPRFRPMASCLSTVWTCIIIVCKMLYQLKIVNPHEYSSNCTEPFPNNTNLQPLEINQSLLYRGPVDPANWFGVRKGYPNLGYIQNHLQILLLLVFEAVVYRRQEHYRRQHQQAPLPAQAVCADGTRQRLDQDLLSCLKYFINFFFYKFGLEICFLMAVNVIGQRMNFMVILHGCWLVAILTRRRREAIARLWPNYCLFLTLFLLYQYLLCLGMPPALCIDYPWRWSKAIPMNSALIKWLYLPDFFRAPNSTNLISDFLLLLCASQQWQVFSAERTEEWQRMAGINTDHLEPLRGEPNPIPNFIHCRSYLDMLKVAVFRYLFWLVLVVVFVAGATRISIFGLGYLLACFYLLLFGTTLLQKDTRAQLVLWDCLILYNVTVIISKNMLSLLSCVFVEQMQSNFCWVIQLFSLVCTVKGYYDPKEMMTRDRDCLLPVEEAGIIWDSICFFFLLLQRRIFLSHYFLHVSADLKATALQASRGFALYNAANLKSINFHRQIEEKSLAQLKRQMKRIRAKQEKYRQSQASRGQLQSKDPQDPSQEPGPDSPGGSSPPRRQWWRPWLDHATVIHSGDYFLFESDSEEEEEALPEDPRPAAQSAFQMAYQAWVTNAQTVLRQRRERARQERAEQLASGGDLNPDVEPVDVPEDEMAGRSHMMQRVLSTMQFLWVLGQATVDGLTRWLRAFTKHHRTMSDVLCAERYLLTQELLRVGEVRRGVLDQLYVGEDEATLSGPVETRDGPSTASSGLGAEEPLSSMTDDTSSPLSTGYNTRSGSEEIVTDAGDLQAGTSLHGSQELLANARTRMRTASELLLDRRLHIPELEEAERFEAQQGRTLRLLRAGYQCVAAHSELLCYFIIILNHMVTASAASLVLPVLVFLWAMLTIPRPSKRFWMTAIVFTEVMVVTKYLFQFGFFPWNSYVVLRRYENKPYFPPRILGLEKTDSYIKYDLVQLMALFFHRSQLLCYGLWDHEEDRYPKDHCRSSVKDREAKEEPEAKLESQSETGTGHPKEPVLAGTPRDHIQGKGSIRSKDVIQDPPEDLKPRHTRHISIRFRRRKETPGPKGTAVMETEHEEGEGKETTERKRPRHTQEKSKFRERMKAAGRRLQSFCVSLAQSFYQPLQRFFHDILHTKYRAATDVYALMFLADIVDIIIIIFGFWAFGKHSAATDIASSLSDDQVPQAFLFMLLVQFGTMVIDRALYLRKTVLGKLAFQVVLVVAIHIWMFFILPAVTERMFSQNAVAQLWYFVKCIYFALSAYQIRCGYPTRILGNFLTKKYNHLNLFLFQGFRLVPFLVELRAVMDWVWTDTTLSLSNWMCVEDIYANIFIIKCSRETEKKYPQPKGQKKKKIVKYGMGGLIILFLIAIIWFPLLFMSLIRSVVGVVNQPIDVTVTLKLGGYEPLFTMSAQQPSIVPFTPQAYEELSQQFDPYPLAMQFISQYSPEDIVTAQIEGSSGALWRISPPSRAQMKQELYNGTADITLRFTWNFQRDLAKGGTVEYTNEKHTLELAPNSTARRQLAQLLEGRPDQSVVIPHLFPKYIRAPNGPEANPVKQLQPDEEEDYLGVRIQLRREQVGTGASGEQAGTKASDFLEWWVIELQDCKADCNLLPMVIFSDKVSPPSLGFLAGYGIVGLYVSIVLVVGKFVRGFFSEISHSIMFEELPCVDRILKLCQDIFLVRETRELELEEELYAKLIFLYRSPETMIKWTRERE

p-CREB level [2, 5]	p-CaMKII level [2, 5]	Compound	calcium influx [1]	number of genes co-downregulated by ultrasound and Yodal [3]	number of genes co-upregulated by ultrasound and Yodal [3]	p-CREB level after ultrasound [2, 6]	p-CaMKII level after ultrasound [2, 6]	level of p-CREB [4]	level of p-CaMKII [4]	ultrasound-induced c-Fos expression in the nuclei [4]
increased; also recorded: upregulate	increased; also recorded: upregulate	Clc1cccc(Cl)c1CSc1nnc(-c2cnccn2)s1 [Yodal]	Significant Ca2+ increase; also recorded: significantly higher calcium influx	23	43	–	–	–	–	–
–	–	GsMTx-4: Piezo1-specific blocker (Abcam), used at 10 μM (GCLEFWWKCNPNDDKCCRPKLKCSKLFKLCNFSF-NH2; disulfide 16-30, 2-17, 9-23; ends not checked)	–	–	–	reduced to levels comparable to those in the untreated control; also recorded: inhibits this effect	reduced to levels comparable to those in the untreated control; also recorded: inhibits this effect	affected	affected	inhibited this effect
